Reference: patent publication US6858638B2, “Substituted indazoles, compositions containing them, method of production and use” (Aventis Pharma S.A., priority 2002, dated 2005)

How the values were obtained:
[1] = target: T1, human IGF1R cytoplasmic domain (Homo sapiens, UniProt P08069); test: IGF1R autophosphorylation inhibition, time resolved fluorescence (HTRF) assay; format: biochemical; details: 10 μM; read-out: IGF1R % inhib at 10 μM
T1 construct: The human IGF1R cytoplasmic domain was cloned; made in house; host or cells: SF21 insect cells (baculovirus)
T1 sequence (P08069 960-1367 limits assumed): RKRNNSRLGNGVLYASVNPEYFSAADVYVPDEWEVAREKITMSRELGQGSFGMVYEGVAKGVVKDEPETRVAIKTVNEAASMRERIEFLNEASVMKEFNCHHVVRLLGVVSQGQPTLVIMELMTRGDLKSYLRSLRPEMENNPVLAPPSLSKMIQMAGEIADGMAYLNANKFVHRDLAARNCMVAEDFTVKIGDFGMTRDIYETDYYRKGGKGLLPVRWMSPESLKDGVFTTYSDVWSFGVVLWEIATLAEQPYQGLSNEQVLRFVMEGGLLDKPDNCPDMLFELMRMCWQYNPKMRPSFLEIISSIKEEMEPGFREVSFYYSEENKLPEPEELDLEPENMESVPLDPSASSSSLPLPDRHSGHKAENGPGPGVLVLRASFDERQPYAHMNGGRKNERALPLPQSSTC
In short: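 GST-tagged human IGF1R cytoplasmic domain from SF21 cells incubated with compound in 50 mM Hepes pH 7.5, 5 mM MnCl2, 50 mM NaCl, […] ATP. Autophosphorylation detected by HTRF (Eu-K anti-phosphotyrosine, XL665 anti-GST) after EDTA/KF stop; percentage inhibition versus no-compound control.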

[2] = test system: c-Src protein; test: Src kinase phosphorylation of biotinylated cdc2 substrate, fluorescence (DELFIA); format: biochemical, human
Experimental: The inhibition of the Src kinase is evaluated by measuring the phosphorylation of the biotinylated cdc2 substrate (Pierce) detected by fluorescence (DELFIA) using an antiphosphotyrosine antibody labeled with Europium, in 96-well Wallac plates. The c-Src protein used is a recombinant human protein produced in Baculovirus, comprising the SH3 and SH2 and the catalytic domains. The enzyme, the substrate and the various concentrations of test compounds are placed in the well in a 50 mM Tris buffer containing 10 mM MgCl2. The reaction is initiated by adding 10 μM of ATP. After incubation for 60 minutes at 30° C., the reaction is stopped by adding 75 mM EDTA. 50 μl are taken from each well and transferred into a plate coated with streptavidin. After incubation for 30 minutes at 25° C., the wells are washed with a washing buffer (Wallac) and then the antiphosphotyrosine antibody (PY20-Europium [Perkin Elmer]) is added in a volume of 75 μl. The plate is incubated for 30 minutes at 25° C. and then an “Enhancer” solution (Wallac) is added before reading the fluorescence using a fluorimeter (Perkin Elmer). The background noise is evaluated in triplicate in wells containing the substrate and the antibody in the absence of enzyme. The activity of the enzyme is measured (in triplicate) in the wells containing all the reagents in the absence of compound. The inhibition of the Src activity is expressed as percentage inhibition of the activity of the control determined in the absence of compound. The compound PP2 (Calbiochem) is included at various concentrations in each experiment as an inhibition control.

Structure (SMILES) | inhibition at 10 µM [1] [%] | melting point [°C] | SRC % inhib at 10 μM [2] [%]
CS(=O)(=O)c1ccccc1S(=O)(=O)Nc1ccc2[nH]nc(N)c2c1 [Example 39, N-(3-Amino-1H-indazol-5-yl)-2-methylsulfonylbenzenesulfonamide] | 72 | 246 | –
O=S(=O)(Nc1ccc2[nH]nc(-c3ccccc3)c2c1)C1CCNCC1 [Example 100, N-(3-Phenyl-1H-indazol-5-yl)-piperidine-4-sulfonamide] | 13 | 230 | –
CS(=O)(=O)c1ccccc1S(=O)(=O)Nc1ccc2[nH]nc(Sc3ccccc3)c2c1 [Example 88, 2-Methylsulfonyl-N-(3-phenylsulfanyl-1H-indazol-5-yl)-benzenesulfonamide] | 82 | 195 | –
O=S(=O)(Nc1ccc2[nH]nc(-c3ccccc3)c2c1)c1ccccc1F [Example 134, 2-Fluoro-N-(3-phenyl-1H-indazol-5-yl)-benzenesulfonamide] | 81 | – | 44
Nc1n[nH]c2ccc(NS(=O)(=O)c3c(Cl)cccc3Cl)cc12 [Example 41, N-(3-Amino-1H-indazol-5-yl)-2,6-dichlorobenzenesulfonamide] | 18 | 250 | –
CC(=O)Nc1ccc(S(=O)(=O)Nc2ccc3[nH]nc(-c4ccccc4)c3c2)cc1 [Example 95, N-[4-(3-Phenyl-1H-indazol-5-ylsulfamoyl)phenyl]acetamide] | 73 | 167 | –
O=S(=O)(Nc1ccc2[nH]nc(-c3ccccc3)c2c1)c1ccc(F)c(F)c1 [Example 152, 3,4-Difluoro-N-(3-phenyl-1H-indazol-5-yl)-benzenesulfonamide] | 67 | – | 43
CS(=O)(=O)c1ccccc1S(=O)(=O)Nc1ccc2[nH]nc(C#Cc3ccccc3)c2c1 [Example 89, 2-Methylsulfonyl-N-(3-phenylethynyl-1H-indazol-5-yl)-benzenesulfonamide] | 90 | 198 | –
O=S(=O)(Nc1ccc2[nH]nc(-c3ccccc3)c2c1)c1cccs1 [Example 110, N-(3-Phenyl-1H-indazol-5-yl)-thiophene-2-sulfonamide] | 80 | – | 45
O=[N+]([O-])c1ccccc1S(=O)(=O)Nc1ccc2[nH]nc(-c3ccccc3)c2c1 [Example 113, 2-Nitro-N-(3-phenyl-1H-indazol-5-yl)benzenesulfonamide] | 81 | – | 23
CS(=O)(=O)c1ccccc1S(=O)(=O)Nc1ccc2[nH]nc(/C=C/c3ccc(Cl)cc3)c2c1 [Example 76, N-{3-[(E)-2-(4-Chlorophenyl)vinyl]-1H-indazol-5-yl}-2-methylsulfonylbenzenesulfonamide] | 96 | 247 | –
Nc1n[nH]c2ccc(NS(=O)(=O)c3cccc(F)c3)cc12 [Example 26, N-(3-Amino-1H-indazol-5-yl)-3-fluorobenzenesulfonamide] | 34 | 216 | –
N#Cc1cccc(S(=O)(=O)Nc2ccc3[nH]nc(-c4ccccc4)c3c2)c1 [Example 154, 3-Cyano-N-(3-phenyl-1H-indazol-5-yl)-benzenesulfonamide] | 75 | – | 44
CS(=O)(=O)c1ccccc1S(=O)(=O)Nc1ccc2[nH]nc(NCc3ccccc3)c2c1 [Example 36, N-(3-Benzylamino-1H-indazol-5-yl)-2-methylsulfonylbenzenesulfonamide] | 92 | 226 | –
COc1cccc(S(=O)(=O)Nc2ccc3[nH]nc(-c4ccccc4)c3c2)c1 [Example 156, 3-Methoxy-N-(3-phenyl-1H-indazol-5-yl)-benzenesulfonamide] | 68 | – | 57
Cc1cc2[nH]nc(-c3ccccc3)c2cc1NS(=O)(=O)c1ccccc1S(C)(=O)=O [Example 92, 2-Methylsulfonyl-N-(6-methyl-3-phenyl-1H-indazol-5-yl)-benzenesulfonamide] | 62 | 239 | –
Nc1n[nH]c2ccc(NS(=O)(=O)c3c(F)cccc3F)cc12 [Example 40, N-(3-Amino-1H-indazol-5-yl)-2,6-difluorobenzenesulfonamide] | 12 | 241 | –
CNc1n[nH]c2ccc(NS(=O)(=O)c3ccccc3S(C)(=O)=O)cc12 [Example 37, N-(3-Methylamino-1H-indazol-5-yl)-2-methylsulfonylbenzenesulfonamide] | 51 | 220 | –
O=S(=O)(Nc1ccc2[nH]nc(-c3cc4ccccc4[nH]3)c2c1)c1ccccc1OC(F)(F)F [Example 84, N-[3-(1H-Indol-2-yl)-1H-indazol-5-yl]-2-trifluoromethoxybenzenesulfonamide] | 94 | 172 to 174 | –
Nc1n[nH]c2ccc(NS(=O)(=O)c3cc(F)cc(F)c3)cc12 [Example 42, N-(3-Amino-1H-indazol-5-yl)-3,5-difluorobenzenesulfonamide] | 0 | 232 | –
Nc1ccc(S(=O)(=O)Nc2ccc3[nH]nc(-c4ccccc4)c3c2)cc1 [Example 94, 4-Amino-N-(3-phenyl-1H-indazol-5-yl)benzenesulfonamide] | 70 | 249 | –
COC(=O)/C=C/c1n[nH]c2ccc(NS(=O)(=O)c3ccccc3S(C)(=O)=O)cc12 [Example 79, Methyl (E)-3-[5(2-methylsulfonylbenzenesulfonylamino)-1H-indazol-3-yl]-acrylate] | 37 | 253 | –

Continued, values first:

inhibition at 10 µM [1] [%] | melting point [°C] | SRC % inhib at 10 μM [2] [%] | Structure (SMILES)
64 | 202 | – | COC(=O)c1cccc(-c2n[nH]c3ccc(NS(=O)(=O)c4ccccc4S(C)(=O)=O)cc23)c1 [Example 55, Methyl 3-[5-(2-methylsulfonylbenzenesulfonamino)-1H-indazol-3-yl]benzoate]
87 | 224 | – | CS(=O)(=O)c1ccc(F)cc1S(=O)(=O)Nc1ccc2[nH]nc(-c3ccccc3)c2c1 [Example 93, 5-Fluoro-2-methylsulfonyl-N-(3-phenyl-1H-indazol-5-yl)-benzenesulfonamide]
95 | 248 | – | CS(=O)(=O)c1ccccc1S(=O)(=O)Nc1ccc2[nH]nc(/C=C/c3ccc(F)cc3)c2c1 [Example 74, N-{3-[(E)-2-(4-Fluorophenyl)vinyl]-1H-indazol-5-yl}-2-methylsulfonylbenzenesulfonamide]
76 | 248 | – | CS(=O)(=O)c1ccccc1S(=O)(=O)Nc1ccc2[nH]nc(-c3ccco3)c2c1 [Example 53, N-(3-Furan-2-yl-1H-indazol-5-yl)-2-methylsulfonylbenzenesulfonamide]
87 | 265 | – | CS(=O)(=O)c1ccccc1S(=O)(=O)Nc1ccc2[nH]nc(-c3ccncc3)c2c1 [Example 54, 2-Methylsulfonyl-N-(3-pyridin-4-yl-1H-indazol-5-yl)benzenesulfonamide]
99 | – | 100 | CS(=O)(=O)c1ccccc1S(=O)(=O)Nc1ccc2[nH]nc(-c3nc4ccccc4[nH]3)c2c1 [Example 81, N-[3-(1H-Benzimidazol-2-yl)-1H-indazol-5-yl]-2-methylsulfonylbenzenesulfonamide]
93 | 244 | – | COc1ccc(-c2n[nH]c3ccc(NS(=O)(=O)c4ccccc4S(C)(=O)=O)cc23)cc1 [Example 32, N-[3-(4-Methoxyphenyl)-1H-indazol-5-yl]-2-methylsulfonylbenzenesulfonamide]
90 | 240 | – | CS(=O)(=O)c1ccccc1S(=O)(=O)Nc1ccc2[nH]nc(-c3cccc(C#N)c3)c2c1 [Example 71, N-[3-(3-Cyanophenyl)-1H-indazol-5-yl]-2-methylsulfonylbenzenesulfonamide]
85 | 154 | – | CS(=O)(=O)c1ccccc1S(=O)(=O)Nc1ccc2[nH]nc(-c3ccc(N)cc3)c2c1 [Example 70, N-[3-(4-Aminophenyl)-1H-indazol-5-yl]-2-methylsulfonylbenzenesulfonamide]
80 | 249 | – | CS(=O)(=O)c1ccccc1S(=O)(=O)Nc1ccc2[nH]nc(-c3ccoc3)c2c1 [Example 52, N-(3-Furan-3-yl-1H-indazol-5-yl)-2-methylsulfonylbenzenesulfonamide]
94 | 209 | – | CS(=O)(=O)c1ccccc1S(=O)(=O)Nc1ccc2[nH]nc(-c3ccc(F)cc3)c2c1 [Example 33, N-[3-(4-Fluorophenyl)-1H-indazol-5-yl]-2-methylsulfonylbenzenesulfonamide]
